Measurements: patent US20030108619A1, “Bone-strengthening agents, food compositions for strengthening bone and feed compositions for strengthening bone” (priority 2000, published 2003)

Tests used:
femora [1] = experiment: Dry weight of femora, Example 1; format: in vivo, rat
Experimental: (§1) 5-weeks old female Wistar rats (Convention) obtained from Japan SLC, Inc. (Hamamatsu, Japan) were used.
(§2) 2. CPP-administered group: Basic feed+CPP (40 mg/100 g body weight)
(§3) 3. Genistein-administered group: Basic feed+genistein (50 μg/100 g body weight)
(§4) 4. CPP+genistein-administered group: Basic feed+CPP (40 mg/100 g body weight)+genistein (50 μg/100 g body weight)
As the CPP, a solution of CPP-III (casein phosphopeptide content 85%) manufactured by Meiji Seika Kaisha, Ltd., dissolved in distilled water was used. As the genistein, a reagent (manufactured by Sigma Chemical Company in U.S. A.) extracted from soybean and highly purified, dissolved in a 10% ethanol solution was used. […]
(§5) After washing the extracted femora in a cold 0.25 M sucrose solution to remove a soft tissue and drying it in a drier at 100° C. for about 16 hours, the dry weight of the femora was measured. After the measurement, the extracted femora were divided into diaphysis (cortical bone) and metaphysis (trabecular bone) and the amount of calcium in each of them was measured. […] The solutions were used as sample solutions and the amount of calcium therein was determined by using an atomic absorption spectrophotometer. […]
(§6) Significant tests of respective measured values were performed by using Student's t-test. […]

femora [2] = experiment: Amount of calcium in femora, Example 1; format: in vivo, rat; conditions: 5-weeks old rats
Experimental: as §1, §2, §3, §4
(§7) As the CPP, a solution of CPP-III (casein phosphopeptide content 85%) manufactured by Meiji Seika Kaisha, Ltd., dissolved in distilled water was used. As the genistein, a reagent (manufactured by Sigma Chemical Company in U.S. A.) extracted from soybean and highly purified, dissolved in a 10% ethanol solution was used.
(§8) Animal groups each consisting of five animals were fed with the basic feed under constant temperature and constant humidity conditions of room temperature 25° C., and 55% humidity. In addition, the control group was administered with 1 ml/100 g body weight of purified distilled water and the other groups were each orally administered with CPP and/or genistein in the above-mentioned amounts once a day for 14 days by using a stomach tube. After 24 hours from the last administration, the rats were sacrificed and the femora were extracted. The extracted femora were used for the measurement of bone components as shown below.
(§9) After washing the extracted femora in a cold 0.25 M sucrose solution to remove a soft tissue and drying it in a drier at 100° C. for about 16 hours, the dry weight of the femora was measured. After the measurement, the extracted femora were divided into diaphysis (cortical bone) and metaphysis (trabecular bone) and the amount of calcium in each of them was measured. That is, the obtained diaphysial tissue and metaphysial tissue of the femora were each charged in a test tube, to which was added 3 ml of concentrated nitric acid to decompose them at 120° C. for 24 hours. The solutions were used as sample solutions and the amount of calcium therein was determined by using an atomic absorption spectrophotometer. The amounts of calcium were expressed in terms of mg per 1 g of the dry weight of the bone tissue.
(§10) Significant tests of respective measured values were performed by using Student's t-test. Values with a risk factor of 5% or less were taken as significant.

[3] = system: bone alkaline phosphatase; experiment: Activity of femoral alkaline phosphatase, Example 1; format: in vivo, rat; conditions: 5-weeks old rats
Experimental: as §1, §2, §3, §4, §7, §8
(§11) The diaphysial tissue and metaphysial tissue of the femora obtained as described above were each dipped in 3 ml of a cold 6.5 mM barbital buffer (pH 7.4) and cut into small pieces and homogenized by using a Potter-Elvehjem homogenizer followed by ultrasonic treatment for 60 seconds for crushing. Further, the homogenate was centrifuged for 5 minutes at 600×g and the supernatant fraction was used as a crude enzyme solution.
(§12) The activity of bone alkaline phosphatase was measured in accordance with the method of Walter and Schutt (Bergmeyer H. U. (ed.). Methods of Enzymatic Analysis, Vol. 1-2, Academic Press, New York, pp. 856-860, 1974). The enzymatic reaction was initiated by adding 0.05 ml of the above-mentioned crude enzyme solution to 2 ml of 0.1M diethanolamine hydrochloride buffer (pH 9.8) containing disodium p-nitrophenyiphosphate as a substrate. The reaction was performed by incubation at 37° C. for 30 minutes. The reaction was terminated by adding 10 ml of 0.05N NaOH and the activity was expressed in terms of the amount (μmol) of free p-nitrophenol per 1 minute per the mass (mg) of the enzyme protein used. The concentration of the protein was measured in accordance with the method of Lowry et al. (J. Biol. Chem., 193: 265-273, 1951).
as §10

femora [4] = experiment: Amount of DNA in femora, Example 1; format: in vivo, rat; conditions: 5-weeks old rats
Experimental: (§13) 5-weeks old female Wistar rats (Convention) obtained from Japan SLC, Inc. (Hamamatsu, Japan) were used. 2. CPP-administered group: Basic feed+CPP (40 mg/100 g body weight) 3. Genistein-administered group: Basic feed+genistein (50 μg/100 g body weight) 4. CPP+genistein-administered group: Basic feed+CPP (40 mg/100 g body weight)+genistein (50 μg/100 g body weight) As the CPP, a solution of CPP-III (casein phosphopeptide content 85%) manufactured by Meiji Seika Kaisha, Ltd., dissolved in distilled water was used. As the genistein, a reagent (manufactured by Sigma Chemical Company in U.S. A.) extracted from soybean and highly purified, dissolved in a 10% ethanol solution was used. Animal groups each consisting of five animals were fed with the basic feed under constant temperature and constant humidity conditions of room temperature 25° C., and 55% humidity. In addition, the control group was administered with 1 ml/100 g body weight of purified distilled water and the other groups were each orally administered with CPP and/or genistein in the above-mentioned amounts once a day for 14 days by using a stomach tube. After 24 hours from the last administration, the rats were sacrificed and the femora were extracted. The extracted femora were used for the measurement of bone components as shown below. The diaphysial tissue and metaphysial tissue of the femora thus obtained were each crushed in 4.0 ml of a cold 0.1 N NaOH solution after homogenization of the bone tissue, shaken at 4° C. for 24 hours and extracted. After the alkali extraction, centrifugation treatment was performed at 1,000×g for 5 minutes and the supernatant fraction was used as a sample for the measurement of DNA. The measurement of the amount of DNA was performed in accordance with the method of Ceriotti (J. Biol. Chem., 214: 39-77, 1955). To a test tube containing 2.0 ml of a sample were added 1.0 ml of concentrated hydrochloric acid and 1.0 ml of a 0.04% indole solution and the test tube was shut with an aluminum cap, followed by heating on a boiling water bath for 10 minutes and then quenched on ice to terminate the reaction. Extraction with 4.0 ml of chloroform for 3 to 4 minutes was repeated several times and the amount of DNA was measured on a spectrophotometer (490 nm). The amount of DNA was calculated per wet weight (g) of bone tissue. Significant tests of respective measured values were performed by using Student's t-test. Values with a risk factor of 5% or less were taken as significant.

femora [5] = experiment: Dry weight of femora, Example 2; format: in vivo, rat
Experimental: as §2, §3, §4, §7
Animal groups each consisting of five animals were fed with the basic feed under constant temperature and constant humidity conditions of room temperature 25° C., and 55% humidity. […]
as §5, §6

femora [6] = experiment: Amount of calcium in femora, Example 2; format: in vivo, rat; conditions: 50-weeks old rats
Experimental: as §2, §3, §4, §7, §8, §9, §10
1) The materials and methods in Example 2 were the same as in Example 1 except that 50-weeks old normal female Wistar rats obtained from Japan SLC, Inc. (Hamamatsu, Japan) were used as test animals.

[7] = system: bone alkaline phosphatase; experiment: Activity of femoral alkaline phosphatase, Example 2; format: in vivo, rat; conditions: 50-weeks old rats
Experimental: as §2, §3, §4, §7, §8, §11, §12
Significant tests of respective measured values were performed by using Student's t-test. Values with a risk factor of 5% or less were taken as significant. […]

femora [8] = experiment: Amount of DNA in femora, Example 2; format: in vivo, rat; conditions: 50-weeks old rats
Experimental: as §13, with “2.” for “5-weeks old female Wistar rats (Convention) obtained from Japan SLC, Inc. (Hamamatsu, Japan) were used. 2.”, “significant. 1) The materials and methods in Example 2 were the same as in Example 1 except that 50-weeks old normal female Wistar rats obtained from Japan SLC, Inc. (Hamamatsu, Japan) were used as test animals.” for “significant.”

osteoclasts [9] = conditions: Biol. Pharm. Bull., 22, 805-809, 1999; cited from earlier work
osteoclasts [10] = conditions: culture system using metaphysial tissue in the femora of old rats; Biochem. Pharmacol., 55: 71-76, 1998; cited from earlier work
osteoblasts = conditions: Res. Exp. Med. 197: 101-107, 1997; cited from earlier work

Compound: O=c1c(-c2ccc(O)cc2)coc2cc(O)cc(O)c12 [Genistein, genistein]
- Dry weight of femora (femora [1]; 5-weeks old female Wistar rats, oral once a day for 14 days, CPP 40 mg/100 g, genistein 50 μg/100 g body weight): 230.4 ± 1.20 mg
- Dry weight of femora as compared with that of the control group (femora [1]; 5-weeks old rats, oral 14 days): 1.12 times
- Amount of calcium in the diaphysis as compared with that of the control group (femora [2]; diaphysis): 1.12 times
- Amount of calcium in the metaphysis as compared with that of the control group (femora [2]; metaphysis): 1.07 times
- Bone calcium, Diaphysis (femora [2]; oral 14 days, diaphysis): 225.1 ± 3.23 mg/g dry weight
- Bone calcium, Metaphysis (femora [2]; oral 14 days, metaphysis): 204.1 ± 3.56 mg/g dry weight
- Activity of femoral alkaline phosphatase in the diaphysis as compared with that of the control group ([3]; diaphysis): 1.04 times
- Activity of femoral alkaline phosphatase in the metaphysis as compared with that of the control group ([3]; metaphysis): 1.04 times
- The activity of alkaline phosphatase, Diaphysis ([3]; oral 14 days, diaphysis): 1.809 ± 0.014 μmol/min/mg protein
- The activity of alkaline phosphatase, Metaphysis ([3]; oral 14 days, metaphysis): 1.853 ± 0.017 μmol/min/mg protein
- Amount of DNA in the diaphysis as compared with that of the control group (femora [4]; diaphysis): 1.06 times
- Amount of DNA in the metaphysis as compared with that of the control group (femora [4]; metaphysis): 1.09 times
- Amount of DNA, Diaphysis (femora [4]; oral 14 days, diaphysis): 1.895 ± 0.013 mg/g wet weight of bone
- Amount of DNA, Metaphysis (femora [4]; oral 14 days, metaphysis): 2.894 ± 0.034 mg/g wet weight of bone
- Dry weight of femora (femora [5]; 50-weeks old female Wistar rats, oral once a day for 14 days, CPP 40 mg/100 g, genistein 50 μg/100 g body weight): 475.3 ± 8.35 mg
- Dry weight of femora as compared with that of the control group (femora [5]; 50-weeks old rats, oral 14 days): 1.08 times
- Amount of calcium in the diaphysis as compared with that of the control group (femora [6]; diaphysis): 1.07 times
- Amount of calcium in femora in the metaphysis as compared with that of the control group (femora [6]; metaphysis): 1.08 times
- Amount of bone calcium, Diaphysis (femora [6]; oral 14 days, diaphysis): 229.2 ± 3.4 mg/g dry weight
- Amount of bone calcium, Metaphysis (femora [6]; oral 14 days, metaphysis): 202.1 ± 3.8 mg/g dry weight
- Activity of femoral alkaline phosphatase in the diaphysis as compared with that of the control group ([7]; diaphysis): 1.12 times
- Activity of femoral alkaline phosphatase in the metaphysis as compared with that of the control group ([7]; metaphysis): 1.12 times
- The activity of alkaline phosphatase, Diaphysis ([7]; oral 14 days, diaphysis): 0.653 ± 0.019 μmol/min/mg protein
- The activity of alkaline phosphatase, Metaphysis ([7]; oral 14 days, metaphysis): 0.744 ± 0.020 μmol/min/mg protein
- Amount of DNA in the diaphysis as compared with that of the control group (femora [8]; diaphysis): 1.14 times
- Amount of DNA in the metaphysis as compared with that of the control group (femora [8]; metaphysis, printed under [Amount of DNA in Femora]): 1.05 times
- Amount of DNA, Diaphysis (femora [8]; oral 14 days, diaphysis): 1.391 ± 0.043 mg/g wet weight of bone
- Amount of DNA, Metaphysis (femora [8]; oral 14 days, metaphysis): 2.836 ± 0.041 mg/g wet weight of bone
- Effect of inhibiting the function of osteoclasts, potency relative to daidzein (osteoclasts [9]): 10 times
- Bone resorption by osteoclasts (osteoclasts [10]): directly inhibits the bone resorption by osteoclasts
- Amount of DNA (index of increase in bone mineral content and cell growth by osteoblasts) (osteoblasts): causes an increase in the amount of DNA
